Results from patent publication US10023565B2, “N,N′ substituted piperidinamine compounds, and preparation method and usage thereof” (Institute of Pharmacology and Toxicology Academy of …, priority 2013, dated 2018).

Columns and labels:
[1] = test system: BT474; assay: Antitumor bioactivity evaluation, breast cancer cells (ATPlite); assay type: cell-based; conditions: Homo sapiens, BT-474; test sample 5 μM, 72 hours; read-out: Inhibitory Rate % BT474
Procedure, shortened: (§1)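 ATPlite luminescence read-out after 72 h exposure at 37 °C; cell survival expressed as % of solvent-matched control RLU. Compound tested at 5 μM final, with or without 1 μM lapatinib, on cells plated 24 h earlier at 5000 per well.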

[2] = test system: MDA-MB-453; assay: as above; assay type: cell-based; conditions: Homo sapiens, test sample 5 μM, 72 hours, read-out: Inhibitory Rate % MDA-MB-453
Procedure, shortened: as §1

[3] = test system: SK-BR3; assay: as above; assay type: cell-based; conditions: Homo sapiens, SK-BR-3; test sample 5 μM, 72 hours; read-out: Inhibitory Rate % SK-BR3
Procedure, shortened: as §1

[4] = test system: MDA-MB-361; assay: as above; assay type: cell-based; conditions: Homo sapiens, test sample 5 μM, 72 hours, read-out: Inhibitory Rate % MDA-MB-361
Procedure, shortened: as §1

[5] = test system: SK/Lap^R1.0; assay: as above; assay type: cell-based; conditions: Homo sapiens; test sample 5 μM, 72 hours; read-out: Inhibitory Rate % SKLap^R1.0
Procedure, shortened: as §1

[6] = test system: BT/Lap^R1.0; assay: as above; assay type: cell-based, human; conditions: Homo sapiens; test sample 5 μM, 72 hours; read-out: Inhibitory Rate % BT/Lap^R1.0
Procedure, shortened: as §1

[7] = target: T1, Hsp70 (Homo sapiens, UniProt P0DMV8); assay: Measurement of affinity between compounds and Hsp70 (SPR, BIACORE T100); assay type: binding; conditions: for Kd: steady state model, 25° C., read-out: KD (binding constant between the compounds and Hsp70)
T1 construct: purchased Enzo Life Sciences ADI-ESP-550-D
T1 sequence (P0DMV8 whole entry): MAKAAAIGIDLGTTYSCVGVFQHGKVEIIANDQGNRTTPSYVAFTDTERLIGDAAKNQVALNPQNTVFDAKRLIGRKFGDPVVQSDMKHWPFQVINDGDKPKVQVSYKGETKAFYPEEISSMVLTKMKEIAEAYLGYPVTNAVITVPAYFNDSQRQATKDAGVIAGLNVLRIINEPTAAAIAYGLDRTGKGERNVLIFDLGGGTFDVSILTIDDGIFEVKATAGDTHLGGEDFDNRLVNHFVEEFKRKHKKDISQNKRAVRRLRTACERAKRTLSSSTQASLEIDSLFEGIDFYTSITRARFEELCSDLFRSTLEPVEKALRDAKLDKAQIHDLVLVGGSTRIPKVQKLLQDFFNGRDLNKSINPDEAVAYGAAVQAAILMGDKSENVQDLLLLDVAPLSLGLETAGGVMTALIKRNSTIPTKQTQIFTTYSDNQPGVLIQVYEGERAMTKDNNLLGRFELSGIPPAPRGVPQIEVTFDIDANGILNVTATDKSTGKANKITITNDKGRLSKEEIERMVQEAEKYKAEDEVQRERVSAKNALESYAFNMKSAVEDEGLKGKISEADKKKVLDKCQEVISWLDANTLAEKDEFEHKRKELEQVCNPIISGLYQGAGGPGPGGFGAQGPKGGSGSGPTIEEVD
Description: Instrument for measuring the affinity between Example compounds and Hsp70 is BIACORE T100 Biomolecular Interaction Analysis (GE, USA), and the positive control drug is VER-155008 that is well-recognized as Hsp70 inhibitor now, and, on the basis of the measured results, according to binding characteristics between the compounds and protein, the binding constant (equilibrium dissociation constant KD) between drugs and protein is calculated by selecting steady state model with the formula: Conc*Rmax/[conc+KD]+offset.
1. Instrument: BIACORE T100 Biomolecular Interaction Analysis (GE, USA)
2. Reagents: PBS Buffer (×10), P20, CM5 chip (GE, USA), Hsp70 (human, ADI-ESP-550-D), manufactured by Enzo Life Sciences.
30 mM mother liquor of the compound was formulated with DMSO, which was diluted to 2 mM application solution with DMSO before use. 5 μl of the application solution was taken and diluted with 95 μl 1.05×PBS to 100 μM, and then diluted in turn with PBS containing 5% DMSO to […]. PBS containing 5% DMSO was used as solvent control.
Hsp70 protein was diluted with 10 mmol/L sodium acetate buffer solution (pH 5.0) to 30 μg/ml, and coupled directly on a hydrophilic carboxylmethyl dextran matrix sensor chip M5 through normalized primary amine coupling reaction, RU=11209, and then the chip was balanced for 1-2 h with PBS Buffer at […].
At a flow rate of […], with PBS containing 5% DMSO as mobile phase, at 25° C., the compound was introduced in the sequence of 0.003, 0.01, 0.03, 0.1, 0.3, 1, 3 and 10 μM, with binding time of 90 seconds, and dissociation time of 120 seconds.
According to binding characteristics between the compounds and protein, the binding constant (equilibrium dissociation constant KD) between drugs and protein was calculated by selecting steady state model with the formula: Conc*Rmax/[conc+KD]+offset.

Compound	inhibition at 5 µM [1] [%]	inhibition at 5 µM [2] [%]	inhibition at 5 µM [3] [%]	inhibition at 5 µM [4] [%]	inhibition at 5 µM [5] [%]	inhibition at 5 µM [6] [%]	KD compared with positive control drug VER-155008 [7]	Kd [7] [nM]
CN(Cc1ccccc1C#N)C1CCN(Cc2cnc(Cl)s2)CC1 [Example 14, N-methyl-N-(2-cyanobenzyl)-N-{1-[(2-chlorothiazol-5-yl)methyl]piperidin-4-yl}amine]	-4.1	8.2	7.3	-8.5	4.2	4	KD values equivalent to that of the positive control drug VER-155008	245
CSc1nccc(N2CCC(N(C)Cc3ccc(F)cc3)CC2)n1 [Example 35, N-methyl-N-(4-fluorobenzyl)-N-[1-(2-methylthiopyrimidin-4-yl)piperidin-4-yl]amine]	40.5	82.3	31.5	46	30.9	44.7	KD values equivalent to that of the positive control drug VER-155008	204
COc1nccc(N2CCC(N(C)Cc3ccc(F)cc3)CC2)n1 [Example 57, N-methyl-N-(4-fluorobenzyl)-N-[1-(2-methoxypyrimidin-4-yl)piperidin-4-yl]amine]	12.5	40.4	14.4	12.8	9	14.6	KD values equivalent to that of the positive control drug VER-155008	281
